Values of other authors as cited in patent US20230117831A1, “MULTI-FUNCTIONAL CHIMERIC MOLECULES” (THE BROAD INSTITUTE, INC., priority 2020, published 2023).
“And” between values parts separate entries of the source, which are not always exact repeats. Equal entries are not always repeated. Where two headings read alike, the source gives them in different places.

Experiments:
[1] = biological target: PKCalpha (Homo sapiens, UniProt P17252); details: cited from earlier work
[2] = biological target: PKC beta (Homo sapiens, UniProt P05771); details: PKC beta; read-out: Kd; cited from earlier work
[3] = biological target: PKC gamma (Homo sapiens, UniProt P05129); details: cited from earlier work
[4] = biological target: PKC delta (Homo sapiens, UniProt Q05655); details: PKC delta; read-out: Kd; cited from earlier work
[5] = biological target: T1, PKC epsilon (Homo sapiens, UniProt Q02156); details: PKC epsilon; read-out: Kd; cited from earlier work
T1 sequence (Q02156 1-737): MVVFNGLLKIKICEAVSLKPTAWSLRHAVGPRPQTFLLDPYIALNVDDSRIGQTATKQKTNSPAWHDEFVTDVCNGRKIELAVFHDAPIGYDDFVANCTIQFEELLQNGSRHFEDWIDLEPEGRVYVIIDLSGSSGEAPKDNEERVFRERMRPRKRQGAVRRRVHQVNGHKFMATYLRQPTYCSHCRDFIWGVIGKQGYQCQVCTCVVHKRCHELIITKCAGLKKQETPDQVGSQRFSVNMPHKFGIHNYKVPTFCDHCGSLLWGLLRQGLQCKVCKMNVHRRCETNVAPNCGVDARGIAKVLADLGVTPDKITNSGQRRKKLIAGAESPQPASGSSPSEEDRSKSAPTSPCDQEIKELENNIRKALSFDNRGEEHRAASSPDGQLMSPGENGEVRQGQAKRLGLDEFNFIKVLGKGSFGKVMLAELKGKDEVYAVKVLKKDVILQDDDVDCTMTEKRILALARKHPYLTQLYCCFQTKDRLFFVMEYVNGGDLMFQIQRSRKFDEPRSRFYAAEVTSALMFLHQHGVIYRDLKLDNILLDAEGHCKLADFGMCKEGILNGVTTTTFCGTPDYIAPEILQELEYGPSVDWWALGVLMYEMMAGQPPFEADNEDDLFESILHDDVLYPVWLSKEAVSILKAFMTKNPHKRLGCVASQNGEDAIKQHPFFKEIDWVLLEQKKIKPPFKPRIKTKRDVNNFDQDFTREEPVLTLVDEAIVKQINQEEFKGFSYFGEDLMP

[6] = biological target: T2, AurA (AURKA) (Homo sapiens, UniProt O14965); details: cited from earlier work
T2 sequence (O14965 1-403): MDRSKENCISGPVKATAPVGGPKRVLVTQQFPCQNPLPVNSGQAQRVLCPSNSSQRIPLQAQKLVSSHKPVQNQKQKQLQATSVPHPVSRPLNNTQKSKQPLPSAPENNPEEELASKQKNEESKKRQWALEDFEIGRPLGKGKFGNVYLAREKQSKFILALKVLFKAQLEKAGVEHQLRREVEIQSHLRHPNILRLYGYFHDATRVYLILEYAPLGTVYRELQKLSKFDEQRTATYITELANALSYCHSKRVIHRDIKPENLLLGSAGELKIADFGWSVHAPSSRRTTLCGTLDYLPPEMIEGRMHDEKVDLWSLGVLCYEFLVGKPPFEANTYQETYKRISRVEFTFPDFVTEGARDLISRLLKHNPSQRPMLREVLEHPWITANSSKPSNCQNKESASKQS

[7] = biological target: AurB (AURKB) (Homo sapiens, UniProt Q96GD4); details: cited from earlier work
[8] = biological target: PIK3Cα/PIK3R1 (Homo sapiens, UniProt P42336); details: cited from earlier work
[9] = biological target: PIK3Cδ/PIK3R1 (Homo sapiens, UniProt O00329); details: cited from earlier work
[10] = biological target: PIK3Cγ (Homo sapiens, UniProt P48736); details: cited from earlier work
Sequence of PIK3Cγ (P48736 whole entry): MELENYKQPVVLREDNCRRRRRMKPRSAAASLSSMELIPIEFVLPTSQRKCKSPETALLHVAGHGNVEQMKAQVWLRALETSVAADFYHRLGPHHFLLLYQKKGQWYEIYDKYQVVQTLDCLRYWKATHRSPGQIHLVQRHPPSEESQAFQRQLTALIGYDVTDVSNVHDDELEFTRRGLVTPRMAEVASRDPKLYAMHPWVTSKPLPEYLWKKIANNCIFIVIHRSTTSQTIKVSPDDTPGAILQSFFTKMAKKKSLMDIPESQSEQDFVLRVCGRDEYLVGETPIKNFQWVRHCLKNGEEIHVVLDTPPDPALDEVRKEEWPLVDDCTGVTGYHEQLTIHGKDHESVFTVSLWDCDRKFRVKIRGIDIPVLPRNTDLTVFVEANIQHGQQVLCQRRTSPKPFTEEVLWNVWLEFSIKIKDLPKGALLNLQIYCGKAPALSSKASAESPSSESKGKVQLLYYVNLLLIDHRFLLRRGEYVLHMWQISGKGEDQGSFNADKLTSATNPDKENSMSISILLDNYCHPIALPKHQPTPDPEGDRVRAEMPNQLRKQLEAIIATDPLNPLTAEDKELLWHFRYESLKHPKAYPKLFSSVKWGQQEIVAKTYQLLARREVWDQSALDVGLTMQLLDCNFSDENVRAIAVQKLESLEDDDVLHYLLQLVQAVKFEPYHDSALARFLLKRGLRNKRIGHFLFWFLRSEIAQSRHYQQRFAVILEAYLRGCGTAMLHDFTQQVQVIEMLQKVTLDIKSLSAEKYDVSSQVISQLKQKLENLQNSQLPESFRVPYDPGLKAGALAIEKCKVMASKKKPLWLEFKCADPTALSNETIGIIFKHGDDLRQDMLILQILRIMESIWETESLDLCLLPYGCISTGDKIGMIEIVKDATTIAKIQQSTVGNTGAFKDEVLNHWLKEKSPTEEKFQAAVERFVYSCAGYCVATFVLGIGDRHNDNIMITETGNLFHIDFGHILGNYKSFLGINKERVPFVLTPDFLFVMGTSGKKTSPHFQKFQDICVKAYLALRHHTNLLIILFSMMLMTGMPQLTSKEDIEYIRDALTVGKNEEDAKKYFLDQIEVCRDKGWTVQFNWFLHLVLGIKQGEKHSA

Sequence of PIK3Cδ/PIK3R1 (O00329 whole entry): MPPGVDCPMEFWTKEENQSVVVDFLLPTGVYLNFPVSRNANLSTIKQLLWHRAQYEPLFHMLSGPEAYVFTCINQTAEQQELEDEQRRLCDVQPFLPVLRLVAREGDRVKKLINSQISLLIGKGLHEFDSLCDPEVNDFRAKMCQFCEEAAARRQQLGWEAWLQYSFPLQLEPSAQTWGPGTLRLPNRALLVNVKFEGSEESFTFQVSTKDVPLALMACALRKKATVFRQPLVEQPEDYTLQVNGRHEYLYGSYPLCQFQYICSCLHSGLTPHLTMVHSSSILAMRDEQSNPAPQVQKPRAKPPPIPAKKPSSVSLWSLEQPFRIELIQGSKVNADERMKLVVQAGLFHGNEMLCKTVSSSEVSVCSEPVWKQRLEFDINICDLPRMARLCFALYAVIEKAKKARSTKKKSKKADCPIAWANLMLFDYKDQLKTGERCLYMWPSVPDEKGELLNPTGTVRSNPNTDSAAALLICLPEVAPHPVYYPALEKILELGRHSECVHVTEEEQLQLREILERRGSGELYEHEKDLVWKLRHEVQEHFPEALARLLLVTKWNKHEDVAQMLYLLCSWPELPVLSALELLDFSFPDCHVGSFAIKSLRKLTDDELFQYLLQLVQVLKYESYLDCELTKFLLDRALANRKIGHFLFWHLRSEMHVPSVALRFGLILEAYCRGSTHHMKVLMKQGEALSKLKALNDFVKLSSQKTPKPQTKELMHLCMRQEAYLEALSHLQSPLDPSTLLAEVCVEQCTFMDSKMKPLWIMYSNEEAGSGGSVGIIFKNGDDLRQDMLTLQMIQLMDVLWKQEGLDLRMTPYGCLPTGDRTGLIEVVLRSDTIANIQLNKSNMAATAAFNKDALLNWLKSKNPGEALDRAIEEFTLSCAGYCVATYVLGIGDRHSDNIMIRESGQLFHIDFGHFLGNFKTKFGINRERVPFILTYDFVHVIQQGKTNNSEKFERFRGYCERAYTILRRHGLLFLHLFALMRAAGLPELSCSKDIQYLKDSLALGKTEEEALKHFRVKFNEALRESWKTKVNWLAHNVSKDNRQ
Sequence of PIK3Cδ/PIK3R1 (P27986 whole entry partner): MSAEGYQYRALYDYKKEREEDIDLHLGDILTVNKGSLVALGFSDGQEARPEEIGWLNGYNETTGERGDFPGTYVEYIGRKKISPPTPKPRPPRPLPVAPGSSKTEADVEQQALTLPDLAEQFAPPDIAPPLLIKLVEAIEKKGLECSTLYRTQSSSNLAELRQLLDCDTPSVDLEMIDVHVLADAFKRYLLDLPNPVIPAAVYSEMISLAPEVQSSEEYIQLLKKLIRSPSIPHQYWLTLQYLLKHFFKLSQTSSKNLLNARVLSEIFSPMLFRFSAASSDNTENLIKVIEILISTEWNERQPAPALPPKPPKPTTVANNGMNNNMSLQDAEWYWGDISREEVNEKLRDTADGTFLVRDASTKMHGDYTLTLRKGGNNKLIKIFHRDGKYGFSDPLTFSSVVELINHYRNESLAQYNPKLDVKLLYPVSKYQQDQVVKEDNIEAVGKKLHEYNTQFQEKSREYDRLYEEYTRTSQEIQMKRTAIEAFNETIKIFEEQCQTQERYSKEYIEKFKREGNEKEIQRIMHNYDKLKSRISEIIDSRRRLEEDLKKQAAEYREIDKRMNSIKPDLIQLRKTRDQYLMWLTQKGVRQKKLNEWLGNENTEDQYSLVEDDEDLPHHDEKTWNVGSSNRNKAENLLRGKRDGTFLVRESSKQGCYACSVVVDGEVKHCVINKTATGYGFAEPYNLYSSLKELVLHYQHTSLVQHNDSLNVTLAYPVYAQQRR
Sequence of PKC delta (Q05655 whole entry): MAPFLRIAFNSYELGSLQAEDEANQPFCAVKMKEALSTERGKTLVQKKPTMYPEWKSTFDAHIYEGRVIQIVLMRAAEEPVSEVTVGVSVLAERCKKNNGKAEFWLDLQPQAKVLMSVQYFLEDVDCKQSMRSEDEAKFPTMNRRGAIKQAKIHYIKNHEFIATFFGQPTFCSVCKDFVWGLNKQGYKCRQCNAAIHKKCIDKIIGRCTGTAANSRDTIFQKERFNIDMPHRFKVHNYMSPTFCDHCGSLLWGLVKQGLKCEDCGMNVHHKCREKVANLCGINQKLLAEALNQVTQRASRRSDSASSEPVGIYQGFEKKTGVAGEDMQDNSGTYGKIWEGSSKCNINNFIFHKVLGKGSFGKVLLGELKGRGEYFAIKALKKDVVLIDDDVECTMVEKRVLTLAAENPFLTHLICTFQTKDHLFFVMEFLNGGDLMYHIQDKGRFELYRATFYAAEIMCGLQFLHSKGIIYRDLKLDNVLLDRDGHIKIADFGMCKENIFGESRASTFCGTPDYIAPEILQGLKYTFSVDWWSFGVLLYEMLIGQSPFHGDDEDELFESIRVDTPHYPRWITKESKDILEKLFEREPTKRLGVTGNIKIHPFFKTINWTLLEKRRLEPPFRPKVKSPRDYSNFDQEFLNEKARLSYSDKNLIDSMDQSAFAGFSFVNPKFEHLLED

## CCCCCCCCCCc1ccc2c(c1)C[C@@H](CO)NC(=O)[C@H](C(C)C)N2C
[1]
  Kd: 46.6 nM
[2]
  Kd: 58.2 nM
[3]
  Kd: 140 nM
[4]
  Kd: 185 nM
[5]
  Kd: 187 nM

## CCCCCCCCCCc1cccc2c1C[C@@H](CO)NC(=O)[C@H](C(C)C)N2C
[1]; PKC alpha, read-out: Kd
  Kd: 513 nM
[2]
  Kd: 309 nM
[3]; PKC gamma, read-out: Kd
  Kd: 409 nM
[4]
  Kd: 169 nM
[5]
  Kd: 60 nM

## CCCCCCCCC#Cc1cccc2c1C[C@@H](CO)NC(=O)[C@H](C(C)C)N2C
[1]; PKC alpha, read-out: Kd
  Kd: 4530 nM
[2]
  Kd: 1690 nM
[3]; PKC gamma, read-out: Kd
  Kd: > 10000 nM
[4]
  Kd: 2100 nM
[5]
  Kd: 2560 nM

## CC(C)C1C(=O)NC(CO)Cc2cc(NC(=O)C=CC=Cc3ccccc3)ccc2N1C (stereo not shown)
[1]; PKC alpha, read-out: Kd
  Kd: 15.8 nM

## CC(C)[C@H]1C(=O)N[C@H](CO)Cc2cc(NC(=O)CCCCc3ccccc3)ccc2N1C
[1]; PKC alpha, read-out: Kd
  Kd: 34.2 nM

## CC(C)[C@H]1C(=O)N[C@H](CO)Cc2cc(NC(=O)CCCCc3ccc(C(F)(F)F)cc3)ccc2N1C
[1]
  Kd: 12.5 nM

## CC(C)[C@H]1C(=O)N[C@H](CO)Cc2cc(NC(=O)CCCCc3cc(C(F)(F)F)cc(C(F)(F)F)c3)ccc2N1C
[1]; PKC alpha, read-out: Kd
  Kd: 7.8 nM

## CC(C)[C@H]1C(=O)N[C@H](CO)Cc2cc(NC(=O)CCCCc3ccc(/C=C/C(F)(F)C(F)(F)C(F)(F)C(F)(F)C(F)(F)C(F)(F)F)cc3)ccc2N1C
[1]; PKC alpha, read-out: Kd
  Kd: 11.2 nM

## CC(C)[C@H]1C(=O)N[C@H](CO)Cc2cc(NC(=O)CCCCc3ccc(CCC(F)(F)C(F)(F)C(F)(F)C(F)(F)C(F)(F)C(F)(F)F)cc3)ccc2N1C
[1]; PKC alpha, read-out: Kd
  Kd: 9.2 nM

## CC(C)[C@H]1C(=O)N[C@H](CO)Cc2ccccc2N1C
[1]; PKC alpha, read-out: Kd
  Kd: 334 nM

## CCCCCCCCc1ccc2c3c(c[nH]c13)CC[C@@H](CO)NC(=O)[C@H](C(C)C)N2C
[1]; PKC alpha, read-out: Kd
  Kd: 0.5 nM
[2]
  Kd: 0.4 nM
[3]; PKC gamma, read-out: Kd
  Kd: 1.2 nM
[4]
  Kd: 0.8 nM
[5]
  Kd: 1 nM

## CCCCCCCCC#Cc1ccccc1-c1ccc2c(c1)N(C)[C@@H](C(C)C)C(=O)NC(CO)C2 (stereo partly shown)
[1]; PKC alpha, read-out: Kd
  Kd: 3.6 nM

## CCCCC#Cc1ccccc1-c1ccc2c(c1)N(C)[C@@H](C(C)C)C(=O)NC(CO)C2 (stereo partly shown)
[1]; PKC alpha, read-out: Kd
  Kd: 3.1 nM

## CCCCCCCCC#Cc1cccc(-c2ccc3c(c2)C[C@@H](CO)NC(=O)[C@H](C(C)C)N3C)c1
[1]; PKC alpha, read-out: Kd
  Kd: 309 nM

## CCCCCCCCC#Cc1cccc(-c2ccc3c(c2)N(C)[C@@H](C(C)C)C(=O)N[C@H](CO)C3)c1
[1]; PKC alpha, read-out: Kd
  Kd: 5.9 nM

## CCCCC#Cc1cccc(-c2ccc3c(c2)N(C)[C@@H](C(C)C)C(=O)N[C@H](CO)C3)c1
[1]; PKC alpha, read-out: Kd
  Kd: 3 nM

## CCCCCCCCC#Cc1ccc(-c2ccc3c(c2)C[C@@H](CO)NC(=O)[C@H](C(C)C)N3C)cc1
[1]; PKC alpha, read-out: Kd
  Kd: 703 nM

## CCCCCCCCC#Cc1ccc(-c2ccc3c(c2)C[C@@H](CO)NC(=O)[C@H](C(C)C)N3C)s1
[1]; PKC alpha, read-out: Kd
  Kd: 396 nM

## CCCCCCCCC#Cc1ccc(-c2ccc3c(c2)N(C)[C@@H](C(C)C)C(=O)N[C@H](CO)C3)s1
[1]; PKC alpha, read-out: Kd
  Kd: 25 nM

## CC(C)[C@H]1C(=O)N[C@H](CO)Cc2ccc(-c3ccc(NC(=O)OC(C)(C)C)cc3)cc2N1C
[1]; PKC alpha, read-out: Kd
  Kd: 31.5 nM

## CC(C)[C@H]1C(=O)N[C@H](CO)Cc2ccc(NC(=O)c3ccccc3)cc2N1C
[1]; PKC alpha, read-out: Kd
  Kd: 174 nM

## CC(C)[C@H]1C(=O)N[C@H](CO)Cc2ccc(NC(=O)/C=C/c3ccccc3)cc2N1C
[1]; PKC alpha, read-out: Kd
  Kd: 114 nM

## CC(C)[C@H]1C(=O)NC(CO)Cc2ccc(NC(=O)CCc3ccccc3)cc2N1C (stereo partly shown)
[1]; PKC alpha, read-out: Kd
  Kd: 116 nM

## CC(C)[C@H]1C(=O)N[C@H](CO)Cc2ccc(NC(=O)/C=C/C=C/c3ccccc3)cc2N1C
[1]; PKC alpha, read-out: Kd
  Kd: 49.8 nM

## CC(C)[C@H]1C(=O)N[C@H](CO)Cc2ccc(NC(=O)CCCCc3ccccc3)cc2N1C
[1]; PKC alpha, read-out: Kd
  Kd: 18.3 nM

## CC(C)[C@H]1C(=O)NC(CO)Cc2ccc(NC(=O)c3ccc(-c4ccccc4)cc3)cc2N1C (stereo partly shown)
[1]; PKC alpha, read-out: Kd
  Kd: 25.9 nM

## CCCCc1ccc(C(=O)Nc2ccc3c(c2)N(C)[C@@H](C(C)C)C(=O)NC(CO)C3)cc1 (stereo partly shown)
[1]; PKC alpha, read-out: Kd
  Kd: 9.5 nM

## CCCCC#Cc1cccc(C(=O)Nc2ccc3c(c2)N(C)[C@@H](C(C)C)C(=O)NC(CO)C3)c1 (stereo partly shown)
[1]; PKC alpha, read-out: Kd
  Kd: 4.1 nM

## CCCCCCCCc1cccc(C(=O)Nc2ccc3c(c2)N(C)[C@@H](C(C)C)C(=O)NC(CO)C3)c1 (stereo partly shown)
[1]; PKC alpha, read-out: Kd
  Kd: 3.2 nM

## CC(C)[C@H]1C(=O)NC(CO)Cc2ccc(NCc3ccccc3)cc2N1C (stereo partly shown)
[1]; PKC alpha, read-out: Kd
  Kd: 3.8 nM

## Cc1csc(-c2nnc(Nc3ccc(Oc4ncccc4-c4ccnc(N)n4)cc3)c3ccccc23)c1 [AMG900]
[6]
  ka: 220000 M⁻¹ s⁻¹
  kd: 0.000261 s⁻¹
  log(ka): 5.34
  log(kd): −3.58
[7]
  Kd: 0.393 nM
  ka: 58800 M⁻¹ s⁻¹
  kd: 2.31e-05 s⁻¹

## COc1ccc(-c2ccc3c(N4CCOC[C@@H]4C)nc(N4CCOC[C@@H]4C)nc3n2)cc1CO [AZD-8055]
[8]
  Kd: 9.4 nM
  ka: 3.61e+06 M⁻¹ s⁻¹
  kd: 0.0339 s⁻¹
  log(ka): 6.56
  log(kd): −1.47
  residence time (τ): 29 s
[9]
  Kd: 33.6 nM
  ka: 1.93e+06 M⁻¹ s⁻¹
  kd: 0.065 s⁻¹
  log(ka): 6.29
  log(kd): −1.19
  residence time (τ): 15 s
[10]
  Kd: 92.5 nM
  ka: 1.59e+06 M⁻¹ s⁻¹
  kd: 0.147 s⁻¹
  log(ka): 6.20
  log(kd): −0.83
  residence time (τ): 7 s

## Cc1nc(NC(=O)N2CCC[C@H]2C(N)=O)sc1-c1ccnc(C(C)(C)C(F)(F)F)c1 [Alpelisib]
[9]
  ka: 6.16e+06 M⁻¹ s⁻¹
  kd: 0.0641 s⁻¹
  log(ka): 6.79
  log(kd): −1.19
[10]
  ka: 4.05e+06 M⁻¹ s⁻¹
  kd: 0.0395 s⁻¹
  log(ka): 6.61
  log(kd): −1.40

## Nc1cc(C(F)(F)F)c(-c2cc(N3CCOCC3)nc(N3CCOCC3)n2)cn1 [Buparlisib]
[8]
  ka: 3.26e+06 M⁻¹ s⁻¹
  kd: 0.0209 s⁻¹
  log(ka): 6.51
  log(kd): −1.68

## Cn1c(=O)n(-c2ccc(C(C)(C)C#N)cc2)c2c3cc(-c4cnc5ccccc5c4)ccc3ncc21 [Dactolisib]
[8]
  ka: 2.3e+06 M⁻¹ s⁻¹
  kd: 0.0228 s⁻¹
  log(ka): 6.36
  log(kd): −1.64
[9]
  ka: 1.52e+06 M⁻¹ s⁻¹
  kd: 0.0327 s⁻¹
  log(ka): 6.16
  log(kd): −1.49
[10]
  ka: 589000 M⁻¹ s⁻¹
  kd: 0.0433 s⁻¹
  log(ka): 5.77
  log(kd): −1.36

## CO[C@@H](C(=O)N1Cc2n[nH]c(NC(=O)c3ccc(N4CCN(C)CC4)cc3)c2C1)c1ccccc1 [Danusertib]
[6]
  ka: 512000 M⁻¹ s⁻¹
  kd: 0.000868 s⁻¹
  log(ka): 5.71
  log(kd): −3.06

## CCn1cc(-c2ccnc3[nH]c(-c4cccc(CN(C)C)c4)cc23)c(-c2ccc(NC(=O)N(C)C)cc2)n1 [GSK1070916]
[7]
  Kd: 4.48 nM
  ka: 14000 M⁻¹ s⁻¹
  kd: 6.28e-05 s⁻¹

## O=C(O)[C@]1(Cc2cccc(Nc3nccs3)n2)CC[C@@H](Oc2cccc(Cl)c2F)CC1 [MK5108]
[6]
  ka: 3.41e+06 M⁻¹ s⁻¹
  kd: 0.0155 s⁻¹
  log(ka): 6.53 and 6.56
  log(kd): −1.81
